Numbers after ± are expanded uncertainties.
assay: molar heat capacity at saturation pressure; conditions: 283.15 K; Liquid

Compound	molar heat capacity [J/K/mol]
O [water]	75.47 ± 0.58
Cc1ccccc1 [toluene]	152.85 ± 1.2

same assay, conditions: 284.16 K; Liquid

Compound	molar heat capacity [J/K/mol]
ClCCCCCl [1,4-dichlorobutane]	181.25 ± 1.4
ClCCCCCCl [1,5-dichloropentane]	209.5 ± 1.6
ClCCCCl [1,3-dichloropropane]	154.94 ± 1.2
ClCCCCCCCl [1,6-dichlorohexane]	236.57 ± 1.8
ClCCCl [1,2-dichloroethane]	128.02 ± 0.99

same assay, conditions: 286.66 K; Liquid

Compound	molar heat capacity [J/K/mol]
ClCCCCCl [1,4-dichlorobutane]	181.71 ± 1.4
ClCCCCCCl [1,5-dichloropentane]	210.04 ± 1.6
ClCCCCl [1,3-dichloropropane]	155.4 ± 1.2
ClCCCCCCCl [1,6-dichlorohexane]	237.13 ± 1.8
ClCCCl [1,2-dichloroethane]	128.21 ± 0.99

same assay, conditions: 289.15 K; Liquid

Compound	molar heat capacity [J/K/mol]
ClCCCCCl [1,4-dichlorobutane]	182.15 ± 1.4
ClCCCCCCl [1,5-dichloropentane]	210.65 ± 1.6
ClCCCCl [1,3-dichloropropane]	155.76 ± 1.2
ClCCCCCCCl [1,6-dichlorohexane]	237.89 ± 1.8
ClCCCl [1,2-dichloroethane]	128.39 ± 0.99

same assay, conditions: 291.66 K; Liquid

Compound	molar heat capacity [J/K/mol]
ClCCCCCl [1,4-dichlorobutane]	182.62 ± 1.4
ClCCCCCCl [1,5-dichloropentane]	211.2 ± 1.6
ClCCCCl [1,3-dichloropropane]	156.11 ± 1.2
ClCCCCCCCl [1,6-dichlorohexane]	238.51 ± 1.9
ClCCCl [1,2-dichloroethane]	128.58 ± 1

same assay, conditions: 293.15 K; Liquid

Compound	molar heat capacity [J/K/mol]
O [water]	75.29 ± 0.58
Cc1ccccc1 [toluene]	155.56 ± 1.2

same assay, conditions: 294.15 K; Liquid

Compound	molar heat capacity [J/K/mol]
ClCCCCCl [1,4-dichlorobutane]	182.99 ± 1.4
ClCCCCCCl [1,5-dichloropentane]	211.7 ± 1.6
ClCCCCl [1,3-dichloropropane]	156.39 ± 1.2
ClCCCCCCCl [1,6-dichlorohexane]	239.26 ± 1.9
ClCCCl [1,2-dichloroethane]	128.75 ± 1

same assay, conditions: 296.65 K; Liquid

Compound	molar heat capacity [J/K/mol]
ClCCCCCl [1,4-dichlorobutane]	183.49 ± 1.4
ClCCCCCCl [1,5-dichloropentane]	212.19 ± 1.6
ClCCCCl [1,3-dichloropropane]	156.76 ± 1.2
ClCCCCCCCl [1,6-dichlorohexane]	239.89 ± 1.9
ClCCCl [1,2-dichloroethane]	128.94 ± 1

same assay, conditions: 298.15 K; Liquid

Compound	molar heat capacity [J/K/mol]
ClCCCCCl [1,4-dichlorobutane]	183.76 ± 1.4
ClCCCCCCl [1,5-dichloropentane]	212.63 ± 1.6
ClCCCCl [1,3-dichloropropane]	157.03 ± 1.2
ClCCCCCCCl [1,6-dichlorohexane]	240.39 ± 1.9
ClCCCl [1,2-dichloroethane]	129.06 ± 1

same assay, conditions: 299.16 K; Liquid

Compound	molar heat capacity [J/K/mol]
ClCCCCCl [1,4-dichlorobutane]	183.89 ± 1.4
ClCCCCCCl [1,5-dichloropentane]	212.96 ± 1.6
ClCCCCl [1,3-dichloropropane]	157.2 ± 1.2
ClCCCCCCCl [1,6-dichlorohexane]	240.68 ± 1.9
ClCCCl [1,2-dichloroethane]	129.11 ± 1

same assay, conditions: 301.65 K; Liquid

Compound	molar heat capacity [J/K/mol]
ClCCCCCl [1,4-dichlorobutane]	184.47 ± 1.4
ClCCCCCCl [1,5-dichloropentane]	213.55 ± 1.6
ClCCCCl [1,3-dichloropropane]	157.65 ± 1.2
ClCCCCCCCl [1,6-dichlorohexane]	241.35 ± 1.9
ClCCCl [1,2-dichloroethane]	129.39 ± 1

same assay, conditions: 303.15 K; Liquid

molar heat capacity [J/K/mol]	Compound
181.16 ± 1.4	CCCCO [butan-1-ol]
75.29 ± 0.58	O [water]

Compound	molar heat capacity [J/K/mol]
Cc1ccccc1 [toluene]	158.38 ± 1.2

same assay, conditions: 304.16 K; Liquid

Compound	molar heat capacity [J/K/mol]
ClCCCCCl [1,4-dichlorobutane]	184.8 ± 1.4
ClCCCCCCl [1,5-dichloropentane]	214.12 ± 1.7
ClCCCCl [1,3-dichloropropane]	157.89 ± 1.2
ClCCCCCCCl [1,6-dichlorohexane]	242 ± 1.9
ClCCCl [1,2-dichloroethane]	129.47 ± 1

same assay, conditions: 308.56 K; Liquid

Compound	molar heat capacity [J/K/mol]
ClCCCCCl [1,4-dichlorobutane]	185.71 ± 1.4
ClCCCCCCl [1,5-dichloropentane]	215.36 ± 1.7
ClCCCCl [1,3-dichloropropane]	158.63 ± 1.2
ClCCCCCCCl [1,6-dichlorohexane]	243 ± 1.9
ClCCCl [1,2-dichloroethane]	129.86 ± 1

same assay, conditions: 309.15 K; Liquid

Compound	molar heat capacity [J/K/mol]
ClCCCCCl [1,4-dichlorobutane]	185.83 ± 1.4
ClCCCCCCl [1,5-dichloropentane]	215.26 ± 1.7
ClCCCCl [1,3-dichloropropane]	158.67 ± 1.2
ClCCCCCCCl [1,6-dichlorohexane]	243.48 ± 1.9
ClCCCl [1,2-dichloroethane]	129.86 ± 1

same assay, conditions: 311.66 K; Liquid

Compound	molar heat capacity [J/K/mol]
ClCCCCCl [1,4-dichlorobutane]	186.41 ± 1.4
ClCCCCCCl [1,5-dichloropentane]	215.96 ± 1.7
ClCCCCl [1,3-dichloropropane]	159.23 ± 1.2
ClCCCCCCCl [1,6-dichlorohexane]	244.27 ± 1.9
ClCCCl [1,2-dichloroethane]	130.16 ± 1

same assay, conditions: 313.15 K; Liquid

molar heat capacity [J/K/mol]	Compound
188.39 ± 1.5	CCCCO [butan-1-ol]
75.34 ± 0.58	O [water]

Compound	molar heat capacity [J/K/mol]
Cc1ccccc1 [toluene]	161.47 ± 1.2

same assay, conditions: 314.15 K; Liquid

Compound	molar heat capacity [J/K/mol]
ClCCCCCl [1,4-dichlorobutane]	186.88 ± 1.4
ClCCCCCCl [1,5-dichloropentane]	216.61 ± 1.7
ClCCCCl [1,3-dichloropropane]	159.54 ± 1.2
ClCCCCCCCl [1,6-dichlorohexane]	245.06 ± 1.9
ClCCCl [1,2-dichloroethane]	130.4 ± 1

same assay, conditions: 316.65 K; Liquid

Compound	molar heat capacity [J/K/mol]
ClCCCCCl [1,4-dichlorobutane]	187.38 ± 1.4
ClCCCCCCl [1,5-dichloropentane]	217.17 ± 1.7
ClCCCCl [1,3-dichloropropane]	159.89 ± 1.2
ClCCCCCCCl [1,6-dichlorohexane]	245.79 ± 1.9
